Reference: patent US10160747B2, “Compounds and methods for kinase modulation, and indications therefor” (Plexxikon Inc., priority 2016, dated 2018)
Where a chain is given by its changes, count along the chain named.

Assays:
[1] = tested on: quizartinib resistance-causing mutants; conditions: FLT3-ITD KD mutants, in addition to other mutant isoforms; cited from earlier work
BaF3-FLT3-ITD-F691L = biological target: T1, BaF3-FLT3-ITD-F691L (Homo sapiens, UniProt P36888, F691L, cells depend on it, form not given); assay: Cell Assay CS0047: BaF3-FLT3-ITD-F691L CTB; assay type: cell-based, murine; conditions: three day growth assay in the absence of IL3; read-out: Cell Assay: CS0047: BaF3-FLT3-ITD-F691L CTB:IC50
T1 sequence (P36888 with tags, fused parts or gaps INS600HVDFREYEYD/F691L): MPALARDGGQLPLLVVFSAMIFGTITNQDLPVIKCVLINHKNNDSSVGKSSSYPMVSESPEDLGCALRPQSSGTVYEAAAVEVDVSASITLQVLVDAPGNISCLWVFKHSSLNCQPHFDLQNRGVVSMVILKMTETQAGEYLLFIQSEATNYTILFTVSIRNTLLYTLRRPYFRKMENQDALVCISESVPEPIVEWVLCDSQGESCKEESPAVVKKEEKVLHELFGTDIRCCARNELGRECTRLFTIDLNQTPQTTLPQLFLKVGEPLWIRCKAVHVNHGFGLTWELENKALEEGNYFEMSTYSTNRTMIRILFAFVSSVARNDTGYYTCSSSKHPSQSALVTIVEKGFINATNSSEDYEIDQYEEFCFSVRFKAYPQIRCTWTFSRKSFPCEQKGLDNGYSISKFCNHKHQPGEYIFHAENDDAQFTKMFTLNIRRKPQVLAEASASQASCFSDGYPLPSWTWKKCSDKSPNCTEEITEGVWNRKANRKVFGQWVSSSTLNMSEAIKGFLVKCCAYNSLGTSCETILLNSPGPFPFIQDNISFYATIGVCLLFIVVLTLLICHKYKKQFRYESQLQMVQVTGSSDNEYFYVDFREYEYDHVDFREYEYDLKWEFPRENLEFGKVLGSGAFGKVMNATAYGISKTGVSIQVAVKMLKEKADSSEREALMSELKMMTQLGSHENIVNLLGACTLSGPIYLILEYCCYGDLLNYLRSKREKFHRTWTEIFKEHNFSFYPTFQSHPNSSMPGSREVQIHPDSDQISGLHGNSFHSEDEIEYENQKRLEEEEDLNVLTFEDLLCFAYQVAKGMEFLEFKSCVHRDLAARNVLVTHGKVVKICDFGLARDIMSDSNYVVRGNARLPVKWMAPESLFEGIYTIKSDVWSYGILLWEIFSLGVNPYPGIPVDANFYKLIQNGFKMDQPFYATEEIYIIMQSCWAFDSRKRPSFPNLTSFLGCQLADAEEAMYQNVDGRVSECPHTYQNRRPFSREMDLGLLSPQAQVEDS
Source text: (§1) The BaF3 assays as developed used to generate the data in Tables 7 and 8 are identical and differ only in minor details in regards to vector design, not biological function. Both introduce the FLT3 gene with MV4-11 based ITD duplications and resistance mutations from an exogenous promoter (MSCV and CMV respectively) in the exact same cell line.
(§2) As a result of the expressed FLT3 protein, the IL3 factor dependent BaF3 cell clones become IL3-factor independent.
(§3) The compounds in Tables 7 and 8 were tested in an identical fashion by incubating such clones in with increasing concentrations. Inhibition of the FLT3 activity by an inhibitor results in factor dependency, which in the absence of IL3 results in cell death in the three day growth assays.

BaF3-FLT3-ITD-D835V = biological target: T2, BaF3-FLT3-ITD-D835V (Homo sapiens, UniProt P36888, D835V, cells depend on it, form not given); assay: Cell Assay CS0048: BaF3-FLT3-ITD-D835V CTB; assay type: cell-based, murine; conditions: three day growth assay in the absence of IL3; read-out: Cell Assay: CS0048: BaF3-FLT3-ITD-D835V CTB:IC50
T2 sequence (P36888 with tags, fused parts or gaps INS600HVDFREYEYD/D835V): T1 sequence (P36888 with tags, fused parts or gaps INS600HVDFREYEYD/F691L) with L701F, D845V
Source text: as §1, §2, §3

[2] = tested on: leukemia cell that express either wild type FLT3 or FLT3-ITD mutations; conditions: cells expressing wild type FLT3 or FLT3-ITD mutations; cited from earlier work
BA/F3-FLT3-ITD + D835Y = biological target: T3, BA/F3-FLT3-ITD + D835Y (Homo sapiens, UniProt P36888, D835Y, cells depend on it, form not given); assay: Engineered BA/F3 cell growth assay, FLT3 ITD/D835Y; assay type: cell-based, murine; conditions: three day growth assay in the absence of IL3; read-out: BaF3_FLT3_ITD/D835Y
T3 sequence (P36888 with tags, fused parts or gaps INS600HVDFREYEYD/D835Y): T1 sequence (P36888 with tags, fused parts or gaps INS600HVDFREYEYD/F691L) with L701F, D845Y
How it was run: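 Murine Ba/F3 cells transfected with full-length FLT3 ITD/D835Y, grown without IL-3 so growth depends on FLT3. Seeded at 1×10^4 cells/well, 8-point 1:3 series to 1 μM top (0.2% DMSO), 3 days at 37 °C. CellTiter-Glo luminescence (ATP) versus concentration gave IC50.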

BaF3_FLT3_ITD/F691L = biological target: T4, BaF3_FLT3_ITD/F691L (Homo sapiens, UniProt P36888, F691L, cells depend on it, form not given); assay: Engineered BaF3 cell growth assay, FLT3 ITD/F691L; assay type: cell-based, murine; conditions: three day growth assay in the absence of IL3
T4 sequence (P36888 with tags, fused parts or gaps INS600HVDFREYEYD/F691L): T1 sequence (P36888 with tags, fused parts or gaps INS600HVDFREYEYD/F691L)
Source text: The FLT3 inhibitors may be assessed using the MOLM-14, Acute Myeloid Leukemia cell line that endogenously expresses FLT3 ITD or derivatives of the human FLT3 AML cell line which acquired the D835Y (activation loop) of F691L (gatekeeper) mutation after selection in escalating doses of the FLT3 Inhibitor AC220. FLT3 inhibitors may also be assessed using cells that are engineered to express mutant FLT3. For engineered cells, murine Ba/F3 cells were transfected with full-length FLT3 ITD/D835Y mutations. The parental BA/F3 cells are dependent upon Interleukin-3 (IL-3) for survival, and introduction of the FLT3 constructs rendered these cells dependent upon FLT3 kinase activity when cultured in the absences of IL-3. Engineered BA/F3 cell growth assays can be performed in either the […] of IL-3, to assess the compound inhibition of FLT3 or to detect the presence of off-target activity, respectively. Inhibitors of FLT3 kinase activity reduce or eliminate the FLT3 oncogenic signaling, resulting in reduced cell proliferation. This inhibition is measured as a function of compound concentration to assess IC50 values.
Cells were seeded at 1×10^4 cells per well of a 96 well cell culture plate in 50 μl of cell culture medium. Compounds were dissolved in DMSO, typically at a concentration of 0.5 mM and were serially diluted 1:3 for a total of eight points and added to the cells to final concentrations of […], 0.0041, 0.0014 and 0.00046 μM in 100 μl cell culture medium (final concentration 0.2% DMSO). […] The cells were incubated at 37° C., 5% CO2 for three days. CellTiter-Glo Buffer (Promega Cell Viability Assay catalog #G7573) and substrate were equilibrated to room temperature, and enzyme/substrate Recombinant Firefly Luciferase/Beetle Luciferin was reconstituted. […] The plates were read on a Tecan M1000 using Luminescence protocol modified to read 0.1 s per well. The luminescence reading assesses the ATP content, which correlates directly with cell number such that the reading as a function of compound concentration was used to determine the IC50 value. […]

For `CNC(=O)c1cc(Oc2ccc(NC(=O)Nc3ccc(Cl)c(C(F)(F)F)c3)cc2)ccn1` [sorafenib], the “activity against identified quizartinib resistance-causing mutants” value [1] is listed as “ineffective”.
Compound `CC(C)(c1cc(NC(=O)Cc2ccc(-c3ccc(NCCN4CCOCC4)nc3)cc2)no1)C(F)(F)F` has a GI50 (BaF3-FLT3-ITD-F691L) of 73.9 nM and a GI50 (BaF3-FLT3-ITD-D835V) of 145 nM.
In the case of `C=CCNC1=C2C[C@@H](C)C[C@H](OC)[C@H](O)[C@@H](C)/C=C(\C)[C@H](OC(N)=O)[C@@H](OC)/C=C\C=C(/C)C(=O)NC(=CC1=O)C2=O` [17″AAG, 17AAG], the “growth of leukemia cells” value [2] is given as “inhibited”.
With `Cn1cc(Nc2ncc(-c3ccc(CC(=O)Nc4ccc(C(C)(C)C)nc4)cc3)cn2)cn1` [drawing 327] the GI50 (BA/F3-FLT3-ITD + D835Y) was 0.444 nM and the GI50 (BaF3_FLT3_ITD/F691L) was 0.434 nM.
With `CC(C)(C)c1cc(NC(=O)Nc2ccc(-c3cnc(NC4CCOCC4)nc3)cn2)no1` the GI50 (BaF3-FLT3-ITD-F691L) was 110 nM and the GI50 (BaF3-FLT3-ITD-D835V) was 673 nM.
For `CNc1ccc(-c2ccc(CC(=O)Nc3cc(C(C)(C)C)on3)cc2)cn1`, the GI50 (BaF3-FLT3-ITD-F691L) was 43.2 nM and the GI50 (BaF3-FLT3-ITD-D835V) was 92 nM.
Work on `Cn1cc(Nc2ncc(-c3ccc(CC(=O)Nc4ccnc(C(F)(F)F)c4)cc3)cn2)cn1` [drawing 325] yielded a GI50 (BA/F3-FLT3-ITD + D835Y) of 0.108 nM and a GI50 (BaF3_FLT3_ITD/F691L) of 0.313 nM.
In the case of `Cn1cc(Nc2ncc(-c3ccc(CC(=O)Nc4cccc(C(F)(F)F)c4)cc3)cn2)cn1` [drawing 326], the GI50 (BA/F3-FLT3-ITD + D835Y) is reported as 0.462 nM and the GI50 (BaF3_FLT3_ITD/F691L) is reported as 1.54 nM.
Compound `CC(C)(C)c1cc(NC(=O)Nc2ccc(-c3cnc(NC4CC4)nc3)cn2)no1` has a GI50 (BaF3-FLT3-ITD-F691L) of 77.8 nM and a GI50 (BaF3-FLT3-ITD-D835V) of 585 nM.
